ChEMBL document CHEMBL4118241, “Structural basis for the selective inhibition of activated thrombin-activatable fibrinolysis inhibitor (TAFIa) by a selenium-containing inhibitor with chloro-aminopyridine as a basic group” (Bioorg Med Chem Lett, 2018)

What was measured:
Carboxypeptidase B [1] = target: T1, Carboxypeptidase B (Sus scrofa, UniProt P09955); assay: Inhibition of porcine pancreas carboxypeptidase B after 10 mins in presence of DTT
T1 sequence (P09955 whole entry): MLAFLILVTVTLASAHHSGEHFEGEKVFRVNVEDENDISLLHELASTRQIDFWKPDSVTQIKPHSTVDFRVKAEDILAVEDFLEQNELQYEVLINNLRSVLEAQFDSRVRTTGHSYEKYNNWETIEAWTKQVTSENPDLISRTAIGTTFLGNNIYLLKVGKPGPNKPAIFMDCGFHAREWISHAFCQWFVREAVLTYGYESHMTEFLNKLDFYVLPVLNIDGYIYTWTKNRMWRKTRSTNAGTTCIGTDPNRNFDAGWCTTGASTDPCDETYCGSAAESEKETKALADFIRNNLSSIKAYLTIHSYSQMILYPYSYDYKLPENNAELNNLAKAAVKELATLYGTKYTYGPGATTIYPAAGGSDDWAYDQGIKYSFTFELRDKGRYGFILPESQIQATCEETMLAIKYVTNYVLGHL

[2] = target: T2, Carboxypeptidase N catalytic chain (Homo sapiens, UniProt P15169); assay: Inhibition of human carboxypeptidase N preincubated for 10 mins followed by hippuryl-lysine substrate addition measured after 30 mins in presence of DTT
T2 sequence (P15169 whole entry): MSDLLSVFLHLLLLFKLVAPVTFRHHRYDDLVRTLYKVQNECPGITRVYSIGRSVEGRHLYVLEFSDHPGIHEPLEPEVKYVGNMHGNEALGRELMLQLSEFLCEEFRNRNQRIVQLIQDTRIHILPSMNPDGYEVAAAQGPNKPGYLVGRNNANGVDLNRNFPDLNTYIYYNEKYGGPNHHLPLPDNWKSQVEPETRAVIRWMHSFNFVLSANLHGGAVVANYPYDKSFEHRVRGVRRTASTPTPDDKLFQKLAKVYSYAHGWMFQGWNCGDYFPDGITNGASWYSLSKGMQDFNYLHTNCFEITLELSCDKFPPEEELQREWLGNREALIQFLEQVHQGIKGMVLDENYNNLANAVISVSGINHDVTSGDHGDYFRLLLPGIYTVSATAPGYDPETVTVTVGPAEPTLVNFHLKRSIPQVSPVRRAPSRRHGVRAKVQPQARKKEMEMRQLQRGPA

Homo sapiens = species: Homo sapiens; assay: Selectivity ratio of IC50 for human carboxypeptidase N to IC50 for human plasma activated thrombin-activatable fibrinolysis inhibitor
[3] = target: T2, Carboxypeptidase N catalytic chain; assay: Inhibition of human carboxypeptidase N preincubated for 10 mins followed by hippuryl-lysine substrate addition measured after 30 mins in absence of DTT
Carboxypeptidase B [4] = target: T1, Carboxypeptidase B; assay: Inhibition of porcine pancreas carboxypeptidase B after 10 mins in absence of DTT
Carboxypeptidase B2 [5] = target: T3, Carboxypeptidase B2 (Homo sapiens, UniProt Q96IY4); assay: Inhibition of human plasma activated thrombin-activatable fibrinolysis inhibitor after 10 mins in presence of DTT
T3 sequence (Q96IY4 whole entry): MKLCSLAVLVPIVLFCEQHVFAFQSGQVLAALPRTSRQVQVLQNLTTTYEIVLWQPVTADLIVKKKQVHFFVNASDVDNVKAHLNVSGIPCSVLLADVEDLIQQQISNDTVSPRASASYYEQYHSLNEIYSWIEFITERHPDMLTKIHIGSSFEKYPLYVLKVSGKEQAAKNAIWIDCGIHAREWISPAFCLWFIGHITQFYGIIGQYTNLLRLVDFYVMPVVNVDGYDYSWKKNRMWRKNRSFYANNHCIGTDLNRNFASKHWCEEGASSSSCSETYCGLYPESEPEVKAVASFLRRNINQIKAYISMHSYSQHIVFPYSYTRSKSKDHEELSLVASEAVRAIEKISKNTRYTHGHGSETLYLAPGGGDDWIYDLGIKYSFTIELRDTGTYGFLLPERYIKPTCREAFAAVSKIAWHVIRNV

Carboxypeptidase B2 [6] = target: T3, Carboxypeptidase B2; assay: Inhibition of human plasma activated thrombin-activatable fibrinolysis inhibitor after 10 mins in absence of DTT

CCC(=O)[Se]CC(Cc1cnc(N)c(Cl)c1)C(=O)O (racemic)
IC50 (Carboxypeptidase B [1]): 29 nM | IC50 [2]: > 380000 nM | Ratio IC50 (Homo sapiens): > 250000 | IC50 [3]: > 380000 nM | IC50 (Carboxypeptidase B [4]): 2500 nM | IC50 (Carboxypeptidase B2 [5]): 1.5 nM | IC50 (Carboxypeptidase B2 [6]): 370000 nM
